Source: patent US4704403A, “3-(2,2,2-trisubstituted hydrazinium) propionates” (priority 1983, dated 1987)

Legend:
white mice = assay: Acute toxicity upon intraperitoneal administration to white mice; format: in vivo; conditions: i.p.
Protocol: (§1) The acute toxicity of the compounds according to the present invention was studied on white mice of both sexes with a mass of 20-25 g. A saturated aqueous solution of the compounds or a suspension in Tween-80 was administered to the animals intraperitoneally. The observation over the animals was carried out for 14 days. The results obtained were processed following the Litchfield-Wilkoxon method. As it follows from the data shown in Table 5 hereinbelow, the studied compounds have a very low acute toxicity, thus providing a large spectrum of the therapeutic effect.

[1] = as above; format: in vivo; conditions: mouse, in vivo, ip, 14 days observation, average values with confidential limits at P=0.05
Protocol: as §1

[2] = test system: arrhythmia caused by introduction of calcium chloride; assay: Antiarrhythmic activity on the model of arrhythmia caused by calcium chloride (antagonism towards calcium); format: in vivo, mice; conditions: for Dose of calcium chloride causing arrhythmia: control 85.0; for Dose of calcium chloride causing heart arrest: control 100.0
Protocol: In experiments on white mice with a mass of 18-25 g narcotized with urethane an electrocardiogram was recorded in the second standard lead. A 2% solution of calcium chloride was introduced into the tail vein at a constant rate (0.01 ml for 2 seconds). The dose of calcium chloride causing arrhythmia and the dose causing heart arrest were determined. In experimental groups the test compounds were administered 20-40 minutes prior to the beginning of the experiment intraperitoneally.

[3] = test system: spontaneously hypertensive rats of the Akamoto-Aoki line; assay: Hypotensive activity on spontaneously hypertensive rats at a single peroral administration; format: in vivo; conditions: for Systolic arterial pressure: ethyl 40 mg/kg (initial 198), benzyl 40 mg/kg (initial 196)
[4] = test system: hypertensive male rats of the Akamoto-Aoki line; assay: Variation of arterial pressure upon intraperitoneal administration to hypertensive rats; format: in vivo
Protocol: The study of hypotensive properties of the compounds of this invention has been carried out of hypertensive male rats of the Akamoto-Aoki line aged 25-30 weeks. The animals were divided into groups (7-10 rats in each) and for 2 weeks before the beginning of the experiment they were subjected to an every-day training for adaptation to the unit for measurements of the arterial pressure. The systolic and diastolic arterial pressure were measured indirectly on the tail artery. The level of the arterial pressure prior to administration of the test compounds was measured by way of a triple determination thereof--2 days, one day and right before the administration of the preparation. The compounds were administered intraperitoneally in the form of a 2.5% aqueous solution or a 2.5% suspension in Twin-80 in the dose of 50 mg/kg. The measurement of the arterial pressure was effected 30 minutes, 1, 2, 3 and 4 hours and in some cases 24 hours after the administration of the preparation. For a number of compounds featuring a high efficiency, also determined was the dose causing reduction of the arterial pressure by 30% as compared with the starting level (ED30). The statistical processing of the data obtained was carried out using the Student certainty criterion.

[5] = test system: spontaneously hypertensive rats of the Akamoto-Aoki line; assay: Systolic arterial pressure of spontaneously hypertensive rats upon a repeated peroral administration; format: in vivo
Protocol: Thus, after a four-days course of administration (once a day, per os) of the compounds according to the present invention an essential reduction of the arterial pressure in the test animals is observed which is not returned to the initial level even an expiration of four days after discontinuation of the preparation administration, whereas the hypotensive effect of nifedipine is manifested for only 8 hours.

[6] = test system: adrenaline-caused arrhythmia; assay: Adrenaline-caused arrhythmia in narcotized guinea pigs; format: in vivo; conditions: for ED50: Cavia porcellus, iv, intravenously, dose giving antiarrhythmic effect in 50% of the experiments
Protocol: A further study of the antiarrhythmic activity of the compounds according to the present invention was connected with the determination of their effect on experimental arrhythmia induced by adrenaline.
Guinea pigs of both sexes with a mass of 400-700 g were narcotized with urethane (1,500 mg/kg intraperitoneally) The standard second-lead electrocardiogram was recorded. Arrhythmia was caused by a rapid injection (intravenously) of adrenaline in the dose of […]. To find out the protective antiarrhythmia effect of the compounds according to the present invention, the number of animals in which the total number of ectopic contractions was reduced by 50% and more as compared to the control experiments was recorded. […] The results obtained in this study of the antiarrhythmic properties of some of the compounds according to the present invention and novocainamide on the adrenaline model of arrhythmia are shown in Table 7.

[7] = 1 hour after single p.o., ethyl 40 mg/kg, benzyl 40 mg/kg
[8] = 3 hours after single p.o., allyl 50 mg/kg (initial 184)
[9] = 3 hours after single p.o., ethyl 40, allyl 50, benzyl 40 mg/kg
[10] = 5 hours after single p.o., allyl 50 mg/kg (initial 184)
[11] = 5 hours after single p.o., ethyl 40, allyl 50, benzyl 40 mg/kg
[12] = 24 hours after single p.o., allyl 50 mg/kg (initial 184)
[13] = 24 hours after single p.o., ethyl 40, allyl 50, benzyl 40 mg/kg
[14] = 30 minutes, 50 mg/kg i.p. (nifedipine 1 mg/kg i.p.)
[15] = 1 hour, 50 mg/kg i.p. (nifedipine 1 mg/kg i.p.)
[16] = 2 hours, 50 mg/kg i.p. (nifedipine 1 mg/kg i.p.)
[17] = 4 hours, 50 mg/kg i.p. (nifedipine 1 mg/kg i.p.)
[18] = after four-days p.o. course, benzyl 40 mg/kg, allyl 50 mg/kg, nifedipine dose not given
[19] = p.o. once a day, benzyl 40 mg/kg, allyl 50 mg/kg, nifedipine dose not given
[20] = p.o., benzyl 40 mg/kg, allyl 50 mg/kg, nifedipine dose not given

SMILES: C[N+](C)(Cc1ccccc1)NCCC(=O)[O-] [3-(2,2-dimethyl-2-benzylhydrazinium)propionate]
- Relative toxicity with respect to quinidine (LD50 / LD50 of quinidine) (white mice): 51.9
- LD50 at 336 h [1]: 8100 mg/kg
- Dose of calcium chloride causing arrhythmia ([2]; compound dose 5 mg/kg i.p.): 90.9
- Dose of calcium chloride causing heart arrest ([2]; compound dose 5 mg/kg i.p.): 103.0
- Dose of calcium chloride causing arrhythmia ([2]; compound dose 25 mg/kg i.p.): 111.0
- Dose of calcium chloride causing heart arrest ([2]; compound dose 25 mg/kg i.p.): 112.0
- Systolic arterial pressure ([3]; 1 hour after single p.o.): 155 mm Hg
- Systolic arterial pressure, percent in parentheses (decrease from initial) [3, 7]: 21%
- Systolic arterial pressure [3, 8]: 150 mm Hg
- Systolic arterial pressure, percent in parentheses (decrease from initial) [3, 9]: 23%
- Systolic arterial pressure [3, 10]: 153 mm Hg
- Systolic arterial pressure, percent in parentheses (decrease from initial) [3, 11]: 22%
- Systolic arterial pressure [3, 12]: 168 mm Hg
- Systolic arterial pressure, percent in parentheses (decrease from initial) [3, 13]: 14%
- Average variation of the diastolic arterial pressure [4, 14]: -14 % of the initial
- Average variation of the systolic arterial pressure [4, 14]: -14 % of the initial
- Average variation of the diastolic arterial pressure [4, 15]: -14 % of the initial
- Average variation of the systolic arterial pressure [4, 15]: -14 % of the initial
- Average variation of the diastolic arterial pressure [4, 16]: -21 % of the initial
- Average variation of the systolic arterial pressure [4, 16]: -15 % of the initial
- Average variation of the diastolic arterial pressure [4, 17]: -21 % of the initial
- Average variation of the systolic arterial pressure [4, 17]: -14 % of the initial
- Average variation of the diastolic arterial pressure ([4]; 24 hours, 50 mg/kg i.p.): -15 % of the initial
- Average variation of the systolic arterial pressure ([4]; 24 hours, 50 mg/kg i.p.): -9 % of the initial
- Systolic arterial pressure, 5th day [5, 18]: 166 mm Hg
- Systolic arterial pressure, 8th day [5, 18]: 157 mm Hg
- Systolic arterial pressure, 10th day [5, 18]: 177.8 mm Hg
- Systolic arterial pressure, 1st day after administration ([5]; p.o. once a day, benzyl 40 mg/kg (initial 195.8), allyl 50 mg/kg (initial 176.6), nifedipine dose not given (initial 184.0)): 148.6 mm Hg
- Systolic arterial pressure, 2nd day before administration [5, 19]: 167.8 mm Hg
- Systolic arterial pressure, 3rd day after administration [5, 19]: 157.4 mm Hg
- Systolic arterial pressure, 4th day after administration [5, 19]: 155 mm Hg
- Systolic arterial pressure, 4th day before administration [5, 19]: 156 mm Hg
- Systolic arterial pressure, 3rd day before administration ([5]; p.o. once a day, benzyl 40 mg/kg, nifedipine dose not given): 153 mm Hg
- Percent in parentheses (change of systolic pressure from initial), 1st day after administration [5, 20]: 24%
- Percent in parentheses (change of systolic pressure from initial), 2nd day before administration [5, 20]: 14%
- Percent in parentheses (change of systolic pressure from initial), 3rd day after administration [5, 20]: 20%
- Percent in parentheses (change of systolic pressure from initial), 4th day after administration [5, 20]: 21%
- Percent in parentheses (change of systolic pressure from initial), 4th day before administration [5, 20]: 20%
- Percent in parentheses (change of systolic pressure from initial), 5th day [5, 20]: 15%
- Percent in parentheses (change of systolic pressure from initial), 8th day [5, 20]: 20%
- Percent in parentheses (change of systolic pressure from initial), 10th day [5, 20]: 9%
- Percent in parentheses (change of systolic pressure from initial), 3rd day before administration ([5]; p.o., benzyl 40 mg/kg, nifedipine dose not given): 22%

SMILES: CC[N+](C)(C)NCCC(=O)[O-] [3-(2,2-dimethyl-2-ethylhydrazinium)propionate monohydrate]
- Relative toxicity with respect to quinidine (LD50 / LD50 of quinidine) (white mice): 14.7
- LD50 at 336 h [1]: 2300 mg/kg
- Dose of calcium chloride causing arrhythmia ([2]; compound dose 5 mg/kg i.p.): 83.0
- Dose of calcium chloride causing heart arrest ([2]; compound dose 5 mg/kg i.p.): 95.0
- Dose of calcium chloride causing arrhythmia ([2]; compound dose 25 mg/kg i.p.): 91.0
- Dose of calcium chloride causing heart arrest ([2]; compound dose 25 mg/kg i.p.): 98.0
- Systolic arterial pressure ([3]; 1 hour after single p.o.): 185 mm Hg
- Systolic arterial pressure, percent in parentheses (decrease from initial) [3, 7]: 7%
- Systolic arterial pressure [3, 8]: 190 mm Hg
- Systolic arterial pressure, percent in parentheses (decrease from initial) [3, 9]: 4%
- Systolic arterial pressure [3, 10]: 193 mm Hg
- Systolic arterial pressure, percent in parentheses (decrease from initial) [3, 11]: 3%
- Systolic arterial pressure [3, 12]: 191 mm Hg
- Systolic arterial pressure, percent in parentheses (decrease from initial) [3, 13]: 4%
- Efficiency (animals with ectopic contractions reduced by 50% and more) ([6]; 3.0 mg/kg intravenously): 1/4
- Efficiency (animals with ectopic contractions reduced by 50% and more) ([6]; 10.0 mg/kg intravenously): 2/4
- Efficiency (animals with ectopic contractions reduced by 50% and more) ([6]; 20.0 mg/kg intravenously): 4/5
- ED50 [6]: 8.2 mg/kg
- Average variation of the diastolic arterial pressure [4, 14]: -2 % of the initial
- Average variation of the systolic arterial pressure [4, 14]: -5 % of the initial
- Average variation of the diastolic arterial pressure [4, 15]: -17 % of the initial
- Average variation of the systolic arterial pressure [4, 15]: -11 % of the initial
- Average variation of the diastolic arterial pressure [4, 16]: -22 % of the initial
- Average variation of the systolic arterial pressure [4, 16]: -13 % of the initial
- Average variation of the diastolic arterial pressure [4, 17]: -23 % of the initial
- Average variation of the systolic arterial pressure [4, 17]: -18 % of the initial
- Average variation of the diastolic arterial pressure ([4]; 24 hours, 50 mg/kg i.p.): -25 % of the initial
- Average variation of the systolic arterial pressure ([4]; 24 hours, 50 mg/kg i.p.): -18 % of the initial

SMILES: C[N+](C)(CCc1ccccc1)NCCC(=O)[O-] [3-(2,2-dimethyl-2-phenylethylhydrazinium)propionate dihydrate]
- Relative toxicity with respect to quinidine (LD50 / LD50 of quinidine) (white mice): 11.8
- LD50 at 336 h [1]: 1850 mg/kg
- Dose of calcium chloride causing arrhythmia ([2]; compound dose 5 mg/kg i.p.): 88.7
- Dose of calcium chloride causing heart arrest ([2]; compound dose 5 mg/kg i.p.): 115.6
- Dose of calcium chloride causing arrhythmia ([2]; compound dose 15 mg/kg i.p.): 110.5
- Dose of calcium chloride causing heart arrest ([2]; compound dose 15 mg/kg i.p.): 142.5
- Efficiency (animals with ectopic contractions reduced by 50% and more) ([6]; 10.0 mg/kg intravenously): 3/5
- Efficiency (animals with ectopic contractions reduced by 50% and more) ([6]; 20.0 mg/kg intravenously): 4/5
- ED50 [6]: 7.8 mg/kg

SMILES: CCN(CC)CCNC(=O)c1ccc(N)cc1 [Novocainamide, reference compound]
- Relative toxicity with respect to quinidine (LD50 / LD50 of quinidine) (white mice): 1.85
- LD50 at 336 h [1]: 290 mg/kg
- Dose of calcium chloride causing arrhythmia ([2]; compound dose 10 mg/kg i.p.): 116.0
- Dose of calcium chloride causing heart arrest ([2]; compound dose 10 mg/kg i.p.): 120.0
- Dose of calcium chloride causing arrhythmia ([2]; compound dose 30 mg/kg i.p.): 127.0
- Dose of calcium chloride causing heart arrest ([2]; compound dose 30 mg/kg i.p.): 138.0
- Efficiency (animals with ectopic contractions reduced by 50% and more) ([6]; 2.5 mg/kg intravenously): 1/5
- Efficiency (animals with ectopic contractions reduced by 50% and more) ([6]; 5.0 mg/kg intravenously): 1/5
- Efficiency (animals with ectopic contractions reduced by 50% and more) ([6]; 10.0 mg/kg intravenously): 3/5
- Efficiency (animals with ectopic contractions reduced by 50% and more) ([6]; 20.0 mg/kg intravenously): 5/5
- ED50 [6]: 7.6 mg/kg
